Reference: US20120252730A1, “PLATELET AGGREGATION INHIBITORS” (UNIVERSITY OF CHICAGO, priority 2009, published 2012)
Each block holds one molecule with its values, some of them ahead of it. Ends that are not written are not given here.

Legend:
αIIbβ3 CHO K1 cells [1] = test: Ac-GXGDSC peptide array cell adhesion, αIIbβ3 CHO K1 cells; format: cell-based, human; conditions: 0.5% peptide spots; 300 μM cRGDFG
Procedure: (§1) Cysteine-terminated peptides were immobilized onto maleimide-presenting SAMs by adding 40 μL of 1 mM peptide solution to the biochip and incubating at 37° C. for 1 hour. Substrates were rinsed with DIUF water and ethanol and dried under a stream of nitrogen. αIIbβ3 CHO K1 cells were detached from culture plates with 1 mM EGTA/2 mM EDTA in PBS (phosphate-buffered saline), rinsed with serum-free F-12K medium, centrifuged and resuspended in serum-free F-12K medium supplemented with cRGDFG (SEQ ID NO: 12) (300 μM) and 1× penicillin/streptomycin. After 15-minute of incubation, cells (200,000/mL) were added to substrates in 24-well culture plates. After 2 hour incubation at 37° C. and 5% CO2, media was exchanged for F-12K medium supplemented with 10% FBS, 1× penicillin/streptomycin and cRGDFG (SEQ ID NO: 12) (300 μM). After 2 hours, the substrates were washed gently with warm PBS, and adherent cells were immediately fixed with 4% formaldehyde for 30 minutes, visualized with a 20× objective of a Zeiss Axiovert 200 inverted microscope, and photographed. For cell adhesion assays mediated by Ac-GXGDSC (SEQ ID NO: 26), αIIbβ3 CHO K1 cells were incubated on a 5×4 circle (1 mm diameter) array for 1 hour with serum-free F-12K medium supplemented with cRGDFG (SEQ ID NO: 12) (300 μM) and 1× penicillin/streptomycin, followed by media exchange to F-12K medium supplemented with 10% FBS, 1× penicillin/streptomycin and cRGDFG (SEQ ID NO: 12) (300 μM. The substrates were washed with warm PBS, and adherent cells were immediately fixed and permeabilized with 4% formaldehyde and 0.5% Triton-X for 30 minutes. Fixed cells were stained with DAPI, visualized and photographed with a 20× objective as described. The number of adherent cells per field of view was counted using Image J software. Cells were counted in at least three fields for each circle, and each experiment was repeated 3 times. The degree of adhesion is reported as a percentage of cells that adhere relative to control experiments with the peptide Ac-GRGDSC (SEQ ID NO: 28).
To further assay the binding of peptide ligands to the […] integrin for XGD peptide ligands, an array was used to assess the adhesion of cells to peptides having the arginine residue substituted with each amino acid other than cysteine (e.g., A, D, E, F, G, H, I, K, L, M, N, P, Q, R, S, T, V, W, and Y). The library of Ac-GXGDSC (SEQ ID NO: 26) peptides was synthesized and immobilized in an array with each peptide occupying a 1 mm diameter region of the monolayer (FIG. 61). A suspension of αIIbβ3 CHO K1 cells was applied to the entire array and cells were allowed to attach to regions presenting the various peptides. The substrates were then rinsed and stained with DAPI, and the cells were counted to determine the relative efficiency of cell attachment to peptides in the library. […] Substitution with leucine and isoleucine were also active, though at a lower level.

CHO-K1 cells = test: Ac-GXGDSC peptide array cell adhesion, CHO K1 cells; format: cell-based
Procedure: Cysteine-terminated peptides were immobilized onto maleimide-presenting SAMs by adding 40 μL of 1 mM peptide solution to the biochip and incubating at 37° C. for 1 hour. Substrates were rinsed with DIUF water and ethanol and dried under a stream of nitrogen. αIIbβ3 CHO K1 cells were detached from culture plates with 1 mM EGTA/2 mM EDTA in PBS (phosphate-buffered saline), rinsed with serum-free F-12K medium, centrifuged and resuspended in serum-free F-12K medium supplemented with cRGDFG (SEQ ID NO: 12) (300 μM) and 1× penicillin/streptomycin. After 15-minute of incubation, cells (200,000/mL) were added to substrates in 24-well culture plates. After 2 hour incubation at 37° C. and 5% CO2, media was exchanged for F-12K medium supplemented with 10% FBS, 1× penicillin/streptomycin and cRGDFG (SEQ ID NO: 12) (300 μM). After 2 hours, the substrates were washed gently with warm PBS, and adherent cells were immediately fixed with 4% formaldehyde for 30 minutes, visualized with a 20× objective of a Zeiss Axiovert 200 inverted microscope, and photographed. […] The number of adherent cells per field of view was counted using Image J software. Cells were counted in at least three fields for each circle, and each experiment was repeated 3 times. […]

BHK 21 cells = test: Ac-GXGDSC peptide array cell adhesion, BHK 21 cells; format: cell-based
HT1080 cells = test: Ac-GXGDSC peptide array cell adhesion, HT1080 cells; format: cell-based
αIIbβ3 CHO K1 cells [2] = test: Cell adhesion assay: αIIbβ3 CHO K1 cells on SAMs presenting immobilized peptides; format: cell-based, human; conditions: 0.5% peptide SAM; in presence of 300 μM cRGDFG
Procedure: Monolayers were prepared as described (Houseman, et al., 2003). Glass coverslips were sonicated for 30 minutes in deionized ultrafiltered (DIUF) water and then 30 minutes in ethanol and then dried under a stream of nitrogen. Titanium (4 nm) and then gold (29 nm) were evaporated onto the coverslips using an electron beam evaporator (Boc Edwards) at a rate of 0.05-0.10 nm/s and at a pressure of 1 μTorr. The gold-coated coverslips were immersed in an ethanolic solution of maleimide-terminated disulfide (1%) and tri(ethylene glycol)-terminated disulfide (99%) overnight at room temperature. The total disulfide concentration was 1 mM. The substrates were washed with DIUF water, ethanol and then dried under a stream of nitrogen.
The pcDNA3.1 vectors that express human αIIb or β3, respectively, have been described previously (see e.g., Litvinov et al. (2006) Biochemistry, 45: 4957-4964). CHO K1, BHK 21 and HT1080 cells were purchased from ATCC. All CHO cells were cultured at 37° C. and 5% CO2 using F12K medium supplemented with 10% FBS and pen/strep. […] CHO K1 cells were transfected with αIIb and β3 cDNA with FuGENE following the supplier's protocol. Transfected cells were selected with 1 mg/mL zeocin and 1 mg/mL geneticin.
as §1
Monolayers were prepared that presented a mixture of maleimide groups and tri(ethylene glycol) groups with the former present at a density of 0.5% (relative to total alkanethiolate). The monolayers were treated with cysteine-terminated peptides to immobilize the ligands (FIG. 1A). In each case mass spectrometry was used to verify immobilization of the peptides in high yield (Su et al., 2002).
The adhesion and spreading of αIIbβ3 CHO K1 cells to monolayers presenting GRGDSC (SEQ ID NO: 11), HHLGGAKQAGDVC (SEQ ID NO: 21) and a mixture of both peptides was compared. […]

αIIbβ3 CHO K1 cells [3] = test: Immunostaining of cytoskeletal structure of αIIbβ3 CHO K1 cells adherent to model substrates; format: cell-based, human; conditions: monolayers presenting the peptide; four hours; anti-vinculin, phalloidin, DAPI
Description: αIIbβ3 CHO K1 cells were allowed to adhere and spread on substrates as described above. Substrates were washed gently with PBS, and fixed and permeabilized as described above. Cells were stained with monoclonal anti-vinculin IgG to visualize focal adhesions, phalloidin to visualize stress fibers and DAPI to visualize the nucleus. Substrates were rinsed thoroughly with PBS and mounted on microscope slides with Aqua Poly/Mount (PolySciences Inc.). Substrates were visualized with a 100× objective of a Zeiss Axiovert 200 inverted microscope, and photographed.
The assembly of focal adhesion and actin stress fibers of αIIbβ3 CHO K1 cells adhered to monolayers presenting GRGDSC (SEQ ID NO: 11), HHLGGAKQAGDVC (SEQ ID NO: 21) a mixture of both peptides, and adsorbed Fbg (FIGS. 3, E, F, G and H respectively) was compared. The αIIbβ3 CHO K1 cells were allowed to attach and spread on the monolayers for four hours, and then fixed the cells and probed with anti-vinculin IgG to visualize focal adhesions and with phalloidin-AF 488 to visualize actin stress fibers.

platelets [4] = conditions: cited from earlier work
αIIbβ3 = biological target: T1, αIIbβ3 (Homo sapiens, UniProt P05106+P08514); conditions: cited from earlier work
T1 construct: host or cells: platelets

platelets [5] = conditions: cited from earlier work; remark: listed apart in the source
αIIbβ3 CHO K1 cells [6] = test: Blocking of αIIbβ3 CHO K1 cell adhesion to GRGDSC monolayer; format: cell-based, human
Description: (§2) FIG. 2 depicts the results of FACS analyses and binding studies of a αIIbβ3 expressing CHO K1 cell line. […] Transfected αIIbβ3 CHO K1 cells express αIIbβ3 at the cell surface, as detected by anti-β3 and PAC-1 antibody (bottom) (the middle and right hand lanes show anti-β3 antibody and PAC-1 antibody binding, respectively). Panel B is a graph of the concentration of cRGDFG (SEQ ID NO: 12; where F is a D amino acid) versus adhesion of αIIbβ3 CHO K1 cells. The peptide cRGDFG (SEQ ID NO: 12), a cyclic peptide that specifically binds to α5 and αV integrins, inhibits CHO K1 cell adhesion to 0.5% GRGDSC (SEQ ID NO: 11) SAMs. Panels C-F are photomicrographs of cells adhering to GRGDSC (SEQ ID NO: 11).
(§3) CHO K1 cells were used that were transfected with the αIIbβ3 receptor, as described previously (Salsmann et al., 2005). Cells were transfected with pcDNA3.1 vectors that coded for αIIb and β3 using FuGENE6 and analyzed by FACS after labeling with the PAC-1 (anti-αIIbβ3) and H-96 (anti-β3) antibodies. Approximately 30% of the cells expressed the receptor (FIG. 2A). Because the CHO K1 cells also express αv and α5 integrins on their surfaces, adhesion experiments were performed in the presence of the cyclic peptide cRGDFG (SEQ ID NO: 12), where F is a D amino acid. […] All experiments that follow, unless stated otherwise, were performed in the presence of 300 μM cRGDFG (SEQ ID NO: 12).

CHO K1 cells = test: Blocking of CHO K1 cell attachment to GRGDSC monolayer; format: cell-based; conditions: 300 μM
Description: as §2, §3

αvβ3 = αvβ3 (Homo sapiens, UniProt P05106+P06756); conditions: cited from earlier work
Chain of αvβ3 (P06756 31-889 limits assumed): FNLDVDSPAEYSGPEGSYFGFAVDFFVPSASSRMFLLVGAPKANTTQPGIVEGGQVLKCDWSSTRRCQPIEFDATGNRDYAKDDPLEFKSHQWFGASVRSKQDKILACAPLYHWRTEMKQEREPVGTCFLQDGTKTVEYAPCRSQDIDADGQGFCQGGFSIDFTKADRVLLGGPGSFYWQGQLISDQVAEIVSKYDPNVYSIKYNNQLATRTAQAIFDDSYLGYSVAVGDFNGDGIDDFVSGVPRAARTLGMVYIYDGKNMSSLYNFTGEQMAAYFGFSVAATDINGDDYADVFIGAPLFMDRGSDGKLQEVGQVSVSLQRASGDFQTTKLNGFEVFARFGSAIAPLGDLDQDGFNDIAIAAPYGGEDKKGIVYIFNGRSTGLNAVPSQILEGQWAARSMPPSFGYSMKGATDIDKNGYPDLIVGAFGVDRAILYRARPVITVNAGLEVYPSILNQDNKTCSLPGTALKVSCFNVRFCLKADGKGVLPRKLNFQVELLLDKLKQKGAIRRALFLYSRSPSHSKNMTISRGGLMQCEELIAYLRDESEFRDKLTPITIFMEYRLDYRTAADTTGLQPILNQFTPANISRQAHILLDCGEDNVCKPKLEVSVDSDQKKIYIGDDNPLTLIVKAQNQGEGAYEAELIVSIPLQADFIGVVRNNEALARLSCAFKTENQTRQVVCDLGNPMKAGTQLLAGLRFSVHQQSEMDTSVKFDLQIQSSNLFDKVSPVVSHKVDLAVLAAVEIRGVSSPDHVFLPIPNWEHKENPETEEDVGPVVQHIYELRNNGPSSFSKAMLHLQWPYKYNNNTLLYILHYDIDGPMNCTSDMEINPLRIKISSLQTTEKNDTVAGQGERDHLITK
Chain of αvβ3 (P06756 891-1048 partner limits assumed): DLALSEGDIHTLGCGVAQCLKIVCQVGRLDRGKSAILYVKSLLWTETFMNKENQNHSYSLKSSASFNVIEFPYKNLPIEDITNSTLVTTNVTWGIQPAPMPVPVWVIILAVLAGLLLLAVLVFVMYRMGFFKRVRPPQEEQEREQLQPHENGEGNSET
Chain of αvβ3 (P05106 27-788): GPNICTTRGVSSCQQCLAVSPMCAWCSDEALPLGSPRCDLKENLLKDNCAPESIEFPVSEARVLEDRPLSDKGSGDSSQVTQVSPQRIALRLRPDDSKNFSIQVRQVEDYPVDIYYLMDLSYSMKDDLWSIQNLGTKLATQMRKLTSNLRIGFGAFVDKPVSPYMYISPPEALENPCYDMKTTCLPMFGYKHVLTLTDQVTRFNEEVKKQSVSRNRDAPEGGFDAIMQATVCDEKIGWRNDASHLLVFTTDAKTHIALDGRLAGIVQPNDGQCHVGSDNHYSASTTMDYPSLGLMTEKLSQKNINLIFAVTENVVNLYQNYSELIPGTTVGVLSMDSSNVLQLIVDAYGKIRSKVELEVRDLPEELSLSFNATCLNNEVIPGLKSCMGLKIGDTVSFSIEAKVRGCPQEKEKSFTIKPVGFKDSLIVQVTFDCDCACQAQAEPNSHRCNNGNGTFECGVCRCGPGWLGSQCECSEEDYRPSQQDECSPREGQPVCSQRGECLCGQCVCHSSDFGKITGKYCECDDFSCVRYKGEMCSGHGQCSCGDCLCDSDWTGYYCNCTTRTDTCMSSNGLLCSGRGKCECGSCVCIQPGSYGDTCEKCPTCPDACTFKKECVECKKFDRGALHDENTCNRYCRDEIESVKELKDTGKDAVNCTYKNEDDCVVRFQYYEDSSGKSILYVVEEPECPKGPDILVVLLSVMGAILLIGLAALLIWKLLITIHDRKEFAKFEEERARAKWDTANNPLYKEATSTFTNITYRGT

[7] = biological target: T2, human αIIbβ3 integrin on transfected CHO K1 cells (human, UniProt P08514 32-1039; P05106 27-788); test: adhesion of αIIbβ3 CHO cells to the peptide monolayer, 300 µM cRGDFG present
T2 construct: whole, on cells; CHO K1 cells transfected with human αIIb and β3 cDNA; about 30% of the cells expressed the receptor; also called platelet receptor; platelet integrin
Procedure: For cell adhesion assays mediated by Ac-GXGDSC (SEQ ID NO: 26), αIIbβ3 CHO K1 cells were incubated on a 5×4 circle (1 mm diameter) array for 1 hour with serum-free F-12K medium supplemented with cRGDFG (SEQ ID NO: 12) (300 μM) and 1× penicillin/streptomycin, followed by media exchange to F-12K medium supplemented with 10% FBS, 1× penicillin/streptomycin and cRGDFG (SEQ ID NO: 12) (300 μM. The substrates were washed with warm PBS, and adherent cells were immediately fixed and permeabilized with 4% formaldehyde and 0.5% Triton-X for 30 minutes. Fixed cells were stained with DAPI, visualized and photographed with a 20× objective as described. The number of adherent cells per field of view was counted using Image J software. Cells were counted in at least three fields for each circle, and each experiment was repeated 3 times. The degree of adhesion is reported as a percentage of cells that adhere relative to control experiments with the peptide Ac-GRGDSC (SEQ ID NO: 28).
CHO K1 cells were used that were transfected with the αIIbβ3 receptor, as described previously (Salsmann et al., 2005). Cells were transfected with pcDNA3.1 vectors that coded for αIIb and β3 using FuGENE6 and analyzed by FACS after labeling with the PAC-1 (anti-αIIbβ3) and H-96 (anti-β3) antibodies. Approximately 30% of the cells expressed the receptor (FIG. 2A). […]

Molecule: Ac-GRGDSC (Ac-GRGDSC-NH2)
cell adhesion on Ac-GXGDSC array relative to Ac-GRGDSC (αIIbβ3 CHO K1 cells [1]): mediated αIIbβ3 CHO K1 cell adhesion | cell adhesion on Ac-GXGDSC array (CHO-K1 cells): promoted significant cell adhesion | cell adhesion on Ac-GXGDSC array (BHK 21 cells): promoted significant cell adhesion | cell adhesion on Ac-GXGDSC array (HT1080 cells): promoted significant cell adhesion

Molecule: GRGDSC (GRGDSC-NH2) [Cys-terminated fibrinogen RGD peptide immobilized on monolayer]
adhesion of αIIbβ3 CHO K1 cells to monolayer presenting the peptide (αIIbβ3 CHO K1 cells [2]): adhered | cytoskeletal structure and focal adhesions of adherent cells (αIIbβ3 CHO K1 cells [3]): well-developed cytoskeletal structures and mature focal adhesions along the perimeter

Molecule: HHLGGAKQAGDVC (HHLGGAKQAGDVC-NH2) [Cys-terminated fibrinogen γ chain peptide immobilized on monolayer]
adhesion of αIIbβ3 CHO K1 cells to monolayer presenting the peptide (αIIbβ3 CHO K1 cells [2]): adhered | cytoskeletal structure and focal adhesions of adherent cells (αIIbβ3 CHO K1 cells [3]): well-developed cytoskeletal structures and mature focal adhesions along the perimeter

Molecule: LGGAKQAGDV (not fully specified (C-terminus)) [γ-derived peptide]
inhibition of Fbg binding to platelets (platelets [4]): inhibited Fbg binding to platelets with an affinity comparable to that of RGDS | less potent in inhibiting PAC-1 binding to αIIbβ3 (αIIbβ3; compared with its inhibition of Fbg binding / RGDS): 2.5 fold | inhibition of A2A9 binding to platelets (platelets [5]): could inhibit the binding of A2A9 to platelets

Molecule: PAC-1
effect on adhesion of αIIbβ3 CHO K1 cells to monolayer presenting GRGDSC (αIIbβ3 CHO K1 cells [6]; PAC-1 antibody together with cyclic peptide inhibitor cRGDFG): prevented cell adhesion to the monolayer

Molecule: RGD
inhibition of A2A9 binding to platelets (platelets [5]): not

Molecule: RGDS (synthesized peptide inhibitor)
inhibition of Fbg binding to platelets (platelets [4]): blocked the binding of both PAC-1 and Fbg to platelets with equal potency | inhibition of PAC-1 binding (αIIbβ3): blocked the binding of both PAC-1 and Fbg to platelets with equal potency

Molecule: cRGDFG
block of attachment of CHO K1 cells to monolayer presenting GRGDSC (CHO K1 cells): could efficiently block the attachment | effect on adhesion of αIIbβ3 CHO K1 cells to monolayer presenting GRGDSC (αIIbβ3 CHO K1 cells [6]; 300 μM): did not interfere with adhesion | IC50 (αvβ3): 1.6 nM | affinity for αvβ3 relative to αIIbβ3 integrin (αvβ3): approximately 1,400 fold

binding result [7]: binds
B1: HHLGGAKQAGDVC (SEQ ID NO: 21), immobilized on a self-assembled monolayer (peptide)
peptide: HHLGGAKQAGDVC-NH2
modifications: not fully specified (residue 13); also: C-terminal Cys thiol linked to maleimide of monolayer
notes: also called 0.5% HHLGGAKQAGDVC SAM; γ peptide

binding result [7]: binds
B2: GRGDSC (SEQ ID NO: 11), immobilized on a self-assembled monolayer (peptide)
peptide: GRGDSC-NH2
modifications: not fully specified (residue 6); also: C-terminal Cys thiol linked to maleimide of monolayer
notes: also called 0.5% GRGDSC SAM
